We go through one molecule from patent publication US12208130B2, “Treatment of women affected with polycystic ovary syndrome” (INSTITUT NATIONAL DE LA SANTE ET DE LA RECHERCHE MEDICALE …, priority 2017, dated 2025).

One series relates to P0 pups. The experiment in a line: LH and T measurement in P0 mice. The series is classed as in vivo, mouse. Conditions: prenatal GnRH antagonist administration with AMH. On the procedure: FIGS. 4A-4C-2. Prenatal AMH treatment increases perinatal T levels in females and masculinizes their brain. (FIG. 4A) Plasma T and LH levels were measured in pups 2 hours after birth (males, n=5; control females, n=5; PAMH females, n=4; PAMH females+GnRH antag, n=6). (FIG. 4B) TH immunoreactive (-ir) neurons in the AVPV were quantified in these animal groups (n=3 per sex and treatment). The number of AVPV TH-ir neurons are represented as the mean±s.e.m. (One-way ANOVA and Tukey's multiple comparisons post-hoc test, F(2,6)=231.1, ***P<0.0001). In FIG. 4B: left bar: male; middle bar: control female; right bar: PAMH female. (FIGS. 4C-1, 4C-2)
For the analysis of circulating LH and T levels, animals were decapitated and trunk blood from adult (P60) animals and P0 pups (1-2 hrs after birth) were collected in sterile Eppendorf tubes and left on ice until centrifugation. Plasma was collected and stored at −80° C. until use. LH levels were determined by a sandwich ELISA, as described previously (Vidal et al., 2012, PloS one, Vol. 7: e39001), using the mouse LH-RP reference provided by A. F. Parlow (National Hormone and Pituitary Program, Torrance, CA). Plasma T levels were analyzed using a commercial ELISA (Demeditec Diagnostics, GmnH, DEV9911) (Moore et al., 2015, Proc Natl Acad Sci USA, Vol. 112: 596-601) according to the manufacturers' instructions. […]

A further series relates to pregnant mice. The experiment in a line: Dam body weight and fat mass, aborted embryos, litter size, pup weight at birth. The series is classed as in vivo, mouse. On the procedure: Dams were injected from E16.5 to E18.5 with either PBS (vehicle, n=8-11), AMH (n=10), AMH+GnRH antag (n=8-10). Body weight (grams: g); (FIG. 9A), subcutaneous fat mass (FIG. 9B) and perigonadal fat mass (FIG. 9C) was measured in dams at gestational day 19.5. (FIG. 9D) Dams were injected from E16.5 to E18.5 with either PBS (vehicle, n=9), AMH (n=9), AMH+GnRH antag (n=9). Dams were sacrificed one day later and the number of aborted embryos per litter was calculated. (FIGS. 9E, 9F) Dams were injected from E16.5 to E18.5 with either PBS (vehicle, n=3), AMH (n=3), AMH+GnRH antag (n=3). The number of pups per litter (FIG. 9E) and the weight of the pups at birth (FIG. 9F) was calculated for each treatment group (vehicle, n=12 pups; AMH, n=11 pups; AMH+GnRH antag, n=12 pups). Values are represented as the mean±s.e.m. […] Data were combined from three independent experiments. FIGS. 9A to 9F: left bar: vehicle; middle bar: AMH; right bar: AMH+GnRH antagonist.

Where a SMILES comes first, the peptide text is derived from it. [ ]: non-standard residue; d: D form. dPhe(4-Cl) = N[C@H](Cc1ccc(Cl)cc1)C(=O)O; d2Nal = N[C@H](Cc1ccc2ccccc2c1)C(=O)O; dCit = NC(=O)NCCC[C@@H](N)C(=O)O; d3Pal = N[C@H](Cc1cccnc1)C(=O)O

On to `CC(=O)N[C@H](Cc1ccc2ccccc2c1)C(=O)N[C@H](Cc1ccc(Cl)cc1)C(=O)N[C@H](Cc1cccnc1)C(=O)N[C@@H](CO)C(=O)N[C@@H](Cc1ccc(O)cc1)C(=O)N[C@H](CCCNC(N)=O)C(=O)N[C@@H](CC(C)C)C(=O)N[C@@H](CCCNC(=N)N)C(=O)N1CCC[C@H]1C(=O)N[C@H](C)C(N)=O` [Cetrorelix acetate, Ac-D-2Nal-D-Phe(4-Cl)-D-3Pal-Ser-Tyr-D-Cit-Leu-Arg-Pro-D-Ala-NH2] (Ac-[d2Nal][dPhe(4-Cl)][d3Pal]SY[dCit]LRP[dA]-NH2), for which, in the series with P0 pups, the “neonatal T and LH surges of PAMH female pups” value is given as “corrected”. For the same molecule, in the series on pregnant mice (dams i.p. AMH+GnRH antag E16.5-E18.5), the “body weights of pups at birth” value is listed as “did not observe any changes”. Further, in the series on pregnant mice (dams injected 3 days with AMH+GnRH antag, E19.5), the “body weight, subcutaneous fat mass or perigonadal fat mass of dams” value is reported as “did not find any changes”.
